From US9409952B2, “Peptide-compound cyclization method” (Chugai Seiyaku Kabushiki Kaisha, priority 2011, dated 2016)
Read-outs that look alike come from different tables or passages of the source. Starred links: 1 amine or outer side, 2 acyl side, 3 side chain; linkers in the order of their positions; H or OH if unused. Positions of bridges follow the written chain, without caps; N, C: chain ends. Non-standard residues stand in square brackets, D forms with d. Residues, ends and D or L forms follow the SMILES beside them. ξ: configuration not given here. *: point of attachment. NMeF = CN[C@@H](Cc1ccccc1)C(=O)O; NMeI = CC[C@H](C)[C@H](NC)C(=O)O; NMeβAla = CN(CCC(=O)[*:2])[*:1]; NMeξIle = CC[C@H](C)C(NC)C(=O)O; NMeL = CN[C@@H](CC(C)C)C(=O)O; NMeV = CN[C@H](C(=O)O)C(C)C; NMeA = CN[C@@H](C)C(=O)O; Piperidide = C1CCN(*)CC1; dNMeA = CN[C@H](C)C(=O)O; ξL = CC(C)CC(N)C(=O)O; Sar = CNCC(=O)O; tBu = CC(C)(C)*

Key:
[1] = PAMPA (parallel artificial membrane permeability assay); format: in vitro ADME; settings: PAMPA
How it was run: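 Artificial membrane was 10% (w/v) egg lecithin plus 0.5% (w/v) cholesterol in dodecane on a PVDF filter. A 10 mM DMSO stock was added at 0.5% (v/v) to donor buffer (50 mM MOPSO, pH 6.5, 5.0% glycocholic acid). After 18 h at 37 °C, LC/MS or LC/UV gave donor and acceptor levels for Pe.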

[2] = Metabolic stability in human hepatic microsome; format: in vitro ADME; settings: microsomes

SMILES	Papp at 18 hours, 50 µM ([1]; pH 6.5)	microsomal CLint at 1 uM ([2]; human, pH 7.4, CL NADPH(+))	Papp at 18 hours, 50 µM ([1]; membrane permeation rate (Pe), 50 mM MOPSO buffer pH 6.5 with 5.0% glycocholic acid, 37° C., 18 hours, read-out: iPAMPA Pe)	microsomal CLint at 1 uM ([2]; pH 7.4, human hepatic microsome, NADPH(+), read-out: CL NADPH(+))
CC[C@H](C)C1C(=O)N(C)[C@@H](Cc2ccccc2)C(=O)N[C@H](C(=O)N2CCCCC2)CC(=O)N(C)CC(=O)NC(CC(C)C)C(=O)N(C)[C@@H](Cc2ccccc2)C(=O)N(C)[C@@H](CC(C)C)C(=O)N[C@@H](C)C(=O)N(C)[C@@H](C(C)C)C(=O)N(C)[C@@H](C)C(=O)N[C@@H]([C@@H](C)O)C(=O)N(C)CC(=O)N1C (stereo partly drawn) [DP-64] ([Sar][ξL][NMeF][NMeL]A[NMeV][NMeA]T[Sar][NMeξIle][NMeF]D-Piperidide; lactam N-12)	24 ×10⁻⁶ cm/s	25 µL/min/mg		
CC[C@H](C)[C@H]1C(=O)N(C)[C@@H](CC(C)C)C(=O)N[C@H](C(=O)N2CCCCC2)CC(=O)N[C@H](C)C(=O)N[C@@H]([C@@H](C)O)C(=O)N(C)[C@@H](C)C(=O)N(C)[C@@H](Cc2ccccc2)C(=O)N2CCC[C@H]2C(=O)N[C@@H](C)C(=O)N(C)[C@@H](C(C)C)C(=O)N[C@@H](Cc2ccccc2)C(=O)N1C [DP-65] ([dA]T[NMeA][NMeF]PA[NMeV]F[NMeI][NMeL]D-Piperidide; lactam N-11)	14 ×10⁻⁶ cm/s	97 µL/min/mg		
CC(C)C[C@H]1C(=O)N(C)[C@@H](Cc2ccccc2)C(=O)N[C@@H](C)C(=O)N2CCC[C@H]2C(=O)N(C)[C@@H](CC(C)C)C(=O)N(C)[C@@H](Cc2ccccc2)C(=O)N(C)[C@@H](C(C)C)C(=O)N[C@H](C(=O)N2CCCCC2)CC(=O)N[C@H](C(C)C)C(=O)N[C@@H]([C@@H](C)O)C(=O)N(C)CC(=O)N1C [DP-66] ([dV]T[Sar][NMeL][NMeF]AP[NMeL][NMeF][NMeV]D-Piperidide; lactam N-11)	19 ×10⁻⁶ cm/s	69 µL/min/mg		
CC[C@H](C)[C@H]1C(=O)N(C)CC(=O)N(C)[C@@H](Cc2ccccc2)C(=O)N[C@H](C(=O)N2CCCCC2)CC(=O)N(C)CCC(=O)N(C)[C@@H](C(C)C)C(=O)N(C)[C@@H](CC(C)C)C(=O)N[C@@H](CC(C)C)C(=O)N[C@@H]([C@@H](C)O)C(=O)N(C)[C@@H](C)C(=O)N[C@@H](Cc2ccccc2)C(=O)N1C [DP-68] ([NMeβAla][NMeV][NMeL]LT[NMeA]F[NMeI][Sar][NMeF]D-Piperidide; lactam N-11)	26 ×10⁻⁶ cm/s	35 µL/min/mg		
CC[C@H](C)[C@H]1C(=O)N[C@@H]([C@@H](C)O)C(=O)N(C)[C@@H](C)C(=O)N(C)[C@@H](CC(C)C)C(=O)N[C@H](C(=O)N2CCCCC2)CC(=O)N(C)CC(=O)N(C)[C@@H](CC(C)C)C(=O)N[C@@H](CC(C)C)C(=O)N(C)[C@@H](Cc2ccccc2)C(=O)N[C@@H](COC(C)(C)C)C(=O)N(C)[C@@H](Cc2ccccc2)C(=O)N1C [DP-69] ([Sar][NMeL]L[NMeF]S(tBu)[NMeF][NMeI]T[NMeA][NMeL]D-Piperidide; lactam N-11)	21 ×10⁻⁶ cm/s	68 µL/min/mg		
CC[C@H](C)[C@H]1C(=O)N(C)[C@@H](Cc2ccccc2)C(=O)NCC(=O)N(C)[C@@H](Cc2ccccc2)C(=O)N(C)[C@@H](CC(C)C)C(=O)N(C)[C@@H](CC(C)C)C(=O)N[C@H](C(=O)N2CCCCC2)CC(=O)N[C@H](C(C)C)C(=O)N[C@@H]([C@@H](C)O)C(=O)N(C)[C@@H](C)C(=O)N1C [DP-72] ([dV]T[NMeA][NMeI][NMeF]G[NMeF][NMeL][NMeL]D-Piperidide; lactam N-10)	27 ×10⁻⁶ cm/s	58 µL/min/mg		
CC[C@H](C)[C@H]1C(=O)N[C@@H](C)C(=O)N[C@H](C(=O)N2CCCCC2)CC(=O)N(C)[C@@H](C)C(=O)N[C@@H]([C@@H](C)O)C(=O)N(C)[C@@H](C)C(=O)N(C)[C@@H](C(C)C)C(=O)N[C@@H](Cc2ccccc2)C(=O)N(C)CC(=O)N(C)[C@@H](CC(C)C)C(=O)N1C [DP-73] ([NMeA]T[NMeA][NMeV]F[Sar][NMeL][NMeI]AD-Piperidide; lactam N-10)	5.4 ×10⁻⁶ cm/s	30 µL/min/mg		
CC[C@H](C)[C@H]1C(=O)NCC(=O)N(C)[C@@H](Cc2ccccc2)C(=O)N(C)[C@@H](Cc2ccccc2)C(=O)N(C)[C@@H](CC(C)C)C(=O)N(C)[C@@H](CC(C)C)C(=O)N[C@H](C(=O)N2CCCCC2)CC(=O)N(C)[C@H](C)C(=O)N[C@@H]([C@@H](C)O)C(=O)N(C)[C@@H](C)C(=O)N1C [DP-74] ([dNMeA]T[NMeA][NMeI]G[NMeF][NMeF][NMeL][NMeL]D-Piperidide; lactam N-10)	29 ×10⁻⁶ cm/s	118 µL/min/mg		
CC[C@H](C)[C@H]1C(=O)N(C)[C@@H](CC(C)C)C(=O)N[C@H](C(=O)N2CCCCC2)CC(=O)N(C)CC(=O)N[C@@H]([C@@H](C)O)C(=O)N(C)[C@@H](C)C(=O)N(C)[C@@H](C(C)C)C(=O)N[C@@H](Cc2ccccc2)C(=O)N(C)CC(=O)N[C@@H](C)C(=O)N1C [DP-75] ([Sar]T[NMeA][NMeV]F[Sar]A[NMeI][NMeL]D-Piperidide; lactam N-10)	3.3 ×10⁻⁶ cm/s	27 µL/min/mg		
CC[C@H](C)[C@H]1C(=O)N(C)[C@@H](C)C(=O)N[C@H](C(=O)N2CCCCC2)CC(=O)N(C)CC(=O)N[C@@H](COC(C)(C)C)C(=O)N(C)CC(=O)N(C)[C@@H](CC(C)C)C(=O)N[C@@H]([C@@H](C)O)C(=O)N(C)[C@@H](Cc2ccccc2)C(=O)N(C)[C@@H](CC(C)C)C(=O)N1C [DP-76] ([Sar]S(tBu)[Sar][NMeL]T[NMeF][NMeL][NMeI][NMeA]D-Piperidide; lactam N-10)	16 ×10⁻⁶ cm/s	27 µL/min/mg		
CC[C@H](C)[C@H]1C(=O)N[C@H](C(=O)N2CCCCC2)CC(=O)N[C@H](C)C(=O)N(C)[C@@H](Cc2ccccc2)C(=O)N(C)[C@@H](CC(C)C)C(=O)N[C@@H]([C@@H](C)O)C(=O)N(C)CC(=O)N(C)[C@@H](CC(C)C)C(=O)N[C@@H](COC(C)(C)C)C(=O)N1C [DP-77] ([dA][NMeF][NMeL]T[Sar][NMeL]S(tBu)[NMeI]D-Piperidide; lactam N-9)	21 ×10⁻⁶ cm/s	33 µL/min/mg		
CC(C)C[C@H]1C(=O)N(C)[C@@H](Cc2ccccc2)C(=O)N(C)[C@@H](CC(C)C)C(=O)N[C@H](C(=O)N2CCCCC2)CC(=O)N[C@H](C(C)C)C(=O)N[C@@H](C)C(=O)N[C@@H]([C@@H](C)O)C(=O)N(C)[C@@H](C)C(=O)N[C@@H](Cc2ccccc2)C(=O)N1C [DP-78] ([dV]AT[NMeA]F[NMeL][NMeF][NMeL]D-Piperidide; lactam N-9)	38 ×10⁻⁶ cm/s	57 µL/min/mg		
CC(C)C[C@H]1C(=O)NCC(=O)N[C@H](C(=O)N2CCCCC2)CC(=O)N(C)[C@@H](C)C(=O)N[C@@H]([C@@H](C)O)C(=O)N(C)[C@@H](C)C(=O)N(C)[C@@H](Cc2ccccc2)C(=O)N[C@@H](COC(C)(C)C)C(=O)N(C)[C@@H](Cc2ccccc2)C(=O)N1C [DP-79] ([NMeA]T[NMeA][NMeF]S(tBu)[NMeF][NMeL]GD-Piperidide; lactam N-9)	28 ×10⁻⁶ cm/s	145 µL/min/mg		
CC(C)C[C@H]1C(=O)N(C)[C@@H](Cc2ccccc2)C(=O)NCC(=O)N[C@H](C(=O)N2CCCCC2)CC(=O)N(C)CCC(=O)N[C@@H]([C@@H](C)O)C(=O)N(C)[C@@H](C)C(=O)N[C@@H](COC(C)(C)C)C(=O)N(C)[C@@H](Cc2ccccc2)C(=O)N1C [DP-80] ([NMeβAla]T[NMeA]S(tBu)[NMeF][NMeL][NMeF]GD-Piperidide; lactam N-9)	12 ×10⁻⁶ cm/s	43 µL/min/mg		
CC[C@H](C)[C@H]1C(=O)N[C@H](C(=O)N2CCCCC2)CC(=O)N(C)[C@H](C)C(=O)N(C)[C@@H](Cc2ccccc2)C(=O)N(C)[C@@H](CC(C)C)C(=O)N[C@@H]([C@@H](C)O)C(=O)N(C)CC(=O)N[C@@H](COC(C)(C)C)C(=O)N(C)[C@@H](CC(C)C)C(=O)N1C [DP-81] ([dNMeA][NMeF][NMeL]T[Sar]S(tBu)[NMeL][NMeI]D-Piperidide; lactam N-9)	25 ×10⁻⁶ cm/s	38 µL/min/mg		
CC[C@H](C)[C@H]1C(=O)N[C@@H](C)C(=O)N[C@H](C(=O)N2CCCCC2)CC(=O)N[C@H](C)C(=O)N[C@@H](Cc2ccccc2)C(=O)N(C)[C@@H](CC(C)C)C(=O)N[C@@H](CC(C)C)C(=O)N[C@@H](Cc2ccccc2)C(=O)N2CCC[C@H]2C(=O)N[C@@H]([C@@H](C)O)C(=O)N[C@@H](COC(C)(C)C)C(=O)N(C)CC(=O)N1C [DP-88] ([dA]F[NMeL]LFPTS(tBu)[Sar][NMeI]AD-Piperidide; lactam N-12)	13 ×10⁻⁶ cm/s	32 µL/min/mg		
CC[C@H](C)[C@H]1C(=O)N[C@@H](CC(C)C)C(=O)NCC(=O)N(C)[C@@H](CC(C)C)C(=O)N[C@@H](Cc2ccccc2)C(=O)N[C@@H]([C@@H](C)O)C(=O)N(C)[C@@H](C)C(=O)N[C@H](C(=O)N2CCCCC2)CC(=O)N(C)[C@@H](C)C(=O)N[C@@H](Cc2ccccc2)C(=O)N(C)[C@@H](C(C)C)C(=O)N[C@@H](CC(C)C)C(=O)N1C [DP-89] ([NMeA]F[NMeV]L[NMeI]LG[NMeL]FT[NMeA]D-Piperidide; lactam N-12)	23 ×10⁻⁶ cm/s	58 µL/min/mg		
CC[C@H](C)[C@H]1C(=O)N(C)[C@@H](C)C(=O)N(C)[C@@H](CC(C)C)C(=O)N[C@@H](COC(C)(C)C)C(=O)N(C)[C@@H](CC(C)C)C(=O)N[C@H](C(=O)N2CCCCC2)CC(=O)N(C)[C@@H](C)C(=O)N(C)[C@@H](Cc2ccccc2)C(=O)N[C@@H](C)C(=O)N(C)[C@@H](CC(C)C)C(=O)N[C@@H]([C@@H](C)O)C(=O)N[C@@H](Cc2ccccc2)C(=O)N1C [DP-90] ([NMeA][NMeF]A[NMeL]TF[NMeI][NMeA][NMeL]S(tBu)[NMeL]D-Piperidide; lactam N-12)			9.1 ×10⁻⁶ cm/s	30 µL/min/mg
CC[C@H](C)[C@H]1C(=O)NCC(=O)N(C)[C@@H](CC(C)C)C(=O)N[C@@H](CC(C)C)C(=O)N[C@H](C(=O)N2CCCCC2)CC(=O)N(C)CCC(=O)N(C)[C@@H](C)C(=O)N[C@@H](CC(C)C)C(=O)N[C@@H]([C@@H](C)O)C(=O)N2CCC[C@H]2C(=O)N[C@@H](Cc2ccccc2)C(=O)N(C)[C@@H](Cc2ccccc2)C(=O)N1C [DP-91] ([NMeβAla][NMeA]LTPF[NMeF][NMeI]G[NMeL]LD-Piperidide; lactam N-12)	20 ×10⁻⁶ cm/s	58 µL/min/mg		
